Values of other authors as cited in patent US20070197495A1, “ANTI-PARASITIC COMPOUNDS AND METHODS OF THEIR USE” (THE REGENTS OF THE UNIVERSITY OF CALIFORNIA, priority 2004, published 2007).

How the values were obtained:
[1] = system: T. cruzi; conditions: mouse model study (Engel et al. 1998)
[2] = system: T. cruzi; conditions: cruzain inhibitor added to cultures of mammalian cells exposed to trypomastigotes or already infected with amastigotes

Row | Molecule | outcome of treatment of T. cruzi-infected mice [1] | replication and differentiation of the parasite [2]
1 | CN1CCN(C(=O)NC(Cc2ccccc2)C(=O)NC(C=CS(=O)(=O)c2ccccc2)CCc2ccccc2)CC1 (centres unmarked) [N-methyl piperazine-Phe-homoPhe-vinyl sulfone phenyl] | cure | 
2 | benzyloxy-carbonyl-L-phenylalanyl L-alanine fluoromethyl ketone [Z-Phe-Ala-FMK] |  | blocks replication and differentiation of the parasite
